Measurements taken from patent publication US20240115557A1, “INHIBITORS OF RNA-GUIDED NUCLEASES AND USES THEREOF” (The Brigham and Women's Hospital, Inc., priority 2022, published 2024).

What was measured:
[1] = molecular target: T1, SpCas9 (Streptococcus pyogenes serotype M1, UniProt Q99ZW2); experiment: HiBiT knock-in assay, SpCas9, HEK293T cells; type: cell-based
Description: Primary and secondary screening. The primary screen assayed a selection of unique chemical scaffolds derived from commercially available compounds and known bioactive molecular libraries (Table 7). Auto-fluorescent compounds were removed by a counter screen. Overall, the CAA was used to assay 122,409 small molecules with over 2,500 unique chemical scaffolds (FIG. 64F, Table 7). Of these compounds, 547 were selected as hits (Z score >3 in both replicates) for testing in orthogonal cell-based secondary assays. Hits were tested in duplicate in an eGFP disruption assay, wherein U2OS.eGFP.PEST cells^33 transfected with SpCas9 plasmid and eGFP-targeting gRNA plasmid were incubated with 20 μM of the compounds. In this assay, any compound that inhibited SpCas9 would rescue the loss of eGFP fluorescence. Here, toxic and auto-fluorescent compounds with a high GFP signal in cells were removed as false positives. […] Next, Applicants tested the 15 compounds in a luminescence-based gain-of-signal HiBiT knock-in assay, which involves SpCas9-mediated homology-directed tagging of GAPDH with a short peptide that luminesces upon complementation with a subunit derived from nanoluciferase.^34 Complementarily, the eGFP-disruption assay is fluorescence-based and involves error-prone DNA repair. As a counter-screen to remove false positives caused by cell death (viability <80%), the cell viability was measured after incubation.
Approximately 400,000 HEK293T cells were nucleofected with 400 ng of SpCas9 plasmid, 40 ng of GAPDH-targeting gRNA plasmid, and 40 pmol of single-strand oligodeoxynucleotide (ssODN) using SF Cell Line 4D-Nucleofector X Kit (Lonza) following the pulse program of DS-150. For RNP-based genome editing, 10 pmol of Cas9 and 12 pmol of gRNA were mixed and incubated for 5 min. Then, 20 pmol of ssODN was added. Cells were nucleofected with the resulting mixture using the same pulse program. Cells were then transferred to a 96-well plate at the density of 35,000 cells per well, and incubated with indicated amount of compounds for 24 h. Cell viability was measured using PrestoBlue reagent (Thermo) with a SpectraMax M5 (Molecular Devices) at the excitation and emission wavelength of 544 nm and 590 nm, respectively. Next, luminescence measurement was performed using the Nano-Glo HiBiT Lytic Detection System (Promega) according to the manufacturer's protocol with an EnVision Multilabel Plate Reader (PerkinElmer) at the integration time of 0.5 s per well. The resulting luminescence signals were normalized based on the cell viability.^34

[2] = test system: HEK293T cells; experiment: CellTiter-Glo cell viability assay, HEK293T; type: cell-based, human; conditions: 24 h
Procedure: HEK293T cells or U2OS.eGFP.PEST cells were plated in a 96-well plate at the density of 30,000 cells per well or 20,000 cells per well, respectively. The next day, cells were treated with indicated amount of compounds for 24 h. Then, cellular ATP levels were measured using CellTiter-Glo Luminescent Cell Viability Assay (Promega) with an EnVision Multilabel Plate Reader (PerkinElmer) at the integration time of 0.5 s per well.

[3] = molecular target: T1, SpCas9; experiment: Targeted deep sequencing of indels (eGFP, EMX1, FANCF, VEGFA); type: cell-based
Procedure: U2OS.eGFP.PEST cells were nucleofected as described above for the eGFP disruption assay, plated in a 24-well plate at the density of 150,000 cells per well, and incubated with BRD7586 for 24 h. Then, the genomic DNA was extracted using DNeasy Blood & Tissue Kit (Qiagen). HEK293T cells were plated in a 24-well plate at the density of 100,000 cells per well. The next day, cells were transfected with 500 ng of SpCas9 plasmid and 250 ng of EMX1-, VEGFA-, or FANCF-targeting gRNA plasmid using Lipofectamine 3000 (Invitrogen). Indicated amount of compound was added at the time of transfection, cells were incubated for 24 h or 48 h, and genomic DNA was extracted. Next-generation sequencing (NGS) samples were prepared using a two-step PCR protocol. NGS libraries were quantified using KAPA Library Quantification Kit (Roche) and diluted to 4 nM. Sequencing of the pooled library was performed using MiSeq Reagent Kit v2 (Illumina). The percentage of indel in the demultiplexed sequence files was analyzed using the CRISPResso2 software from the Pinello Lab.^49

T1 sequence (Q99ZW2 whole entry): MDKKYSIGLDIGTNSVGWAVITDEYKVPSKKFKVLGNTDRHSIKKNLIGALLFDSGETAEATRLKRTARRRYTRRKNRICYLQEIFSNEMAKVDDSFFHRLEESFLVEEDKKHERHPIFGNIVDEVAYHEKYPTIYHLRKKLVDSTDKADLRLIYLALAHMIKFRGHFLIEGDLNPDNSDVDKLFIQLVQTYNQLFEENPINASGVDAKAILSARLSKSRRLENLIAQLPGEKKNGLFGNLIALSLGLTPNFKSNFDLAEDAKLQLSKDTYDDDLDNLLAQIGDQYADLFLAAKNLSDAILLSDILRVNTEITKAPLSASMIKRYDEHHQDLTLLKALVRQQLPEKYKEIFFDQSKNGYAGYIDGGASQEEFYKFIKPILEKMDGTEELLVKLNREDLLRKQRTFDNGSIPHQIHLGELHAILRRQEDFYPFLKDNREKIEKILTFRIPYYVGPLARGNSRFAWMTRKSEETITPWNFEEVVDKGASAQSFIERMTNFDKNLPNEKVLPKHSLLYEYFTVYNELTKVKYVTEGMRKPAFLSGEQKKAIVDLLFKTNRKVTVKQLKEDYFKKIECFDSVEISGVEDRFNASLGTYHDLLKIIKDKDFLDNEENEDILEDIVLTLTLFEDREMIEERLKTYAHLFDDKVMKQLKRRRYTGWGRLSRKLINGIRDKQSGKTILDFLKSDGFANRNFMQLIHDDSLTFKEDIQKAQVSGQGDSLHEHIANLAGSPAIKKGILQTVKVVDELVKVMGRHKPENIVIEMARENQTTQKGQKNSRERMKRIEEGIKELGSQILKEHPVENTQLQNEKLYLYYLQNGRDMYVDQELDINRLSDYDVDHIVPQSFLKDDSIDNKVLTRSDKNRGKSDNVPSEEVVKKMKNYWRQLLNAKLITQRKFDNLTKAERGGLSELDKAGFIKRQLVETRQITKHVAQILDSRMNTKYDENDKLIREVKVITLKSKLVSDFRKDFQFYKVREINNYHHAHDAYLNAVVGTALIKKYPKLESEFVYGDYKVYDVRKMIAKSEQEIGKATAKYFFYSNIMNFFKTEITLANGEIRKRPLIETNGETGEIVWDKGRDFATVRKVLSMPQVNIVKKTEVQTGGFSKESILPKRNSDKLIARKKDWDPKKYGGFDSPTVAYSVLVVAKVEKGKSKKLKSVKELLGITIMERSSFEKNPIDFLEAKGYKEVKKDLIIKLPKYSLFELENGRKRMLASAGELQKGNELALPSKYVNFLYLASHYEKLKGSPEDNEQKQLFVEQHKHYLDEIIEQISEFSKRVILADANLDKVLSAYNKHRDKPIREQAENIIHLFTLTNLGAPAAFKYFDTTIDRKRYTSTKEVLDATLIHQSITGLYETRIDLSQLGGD

## O=C(CCS(=O)(=O)c1ccc(Cl)cc1)Nc1nc(-c2ccncc2)cs1 [BRD7586]
[1]; EC50 in HiBit knockin assay, HEK293T, SpCas9 plasmid, sgRNA plasmid and ssODN, 0.06 uM to 20 uM, 24 h (FIG. 44D)
  EC50: 5.04 µM
[1]; EC50 in the HiBiT knock-in assay, from three independent experiments
  EC50: 5.7 ± 0.36 µM
[2]
  Cytotoxicity: without introducing cytotoxicity
[3]; HEK293T, EMX1, FANCF or VEGFA, 48 h
  Specificity of SpCas9 (on-target versus off-target ratio): enhanced the specificity of SpCas9
[3]; multiple genomic loci
  Inhibition of indel activity by next-generation sequencing: inhibited the indel activity of SpCas9 at multiple genomic loci
